Laboratory results as given in patent publication US11485735B2, “Selective CDK4/6 inhibitor and preparation thereof” (Wuxi Shuangliang Biotechnology Co., Ltd., priority 2019, dated 2022).
Counter-ions that a name gives are not always drawn.

How the values were obtained:
CRBN = molecular target: T1, CRBN (Homo sapiens, UniProt Q96SW2); assay: In-vitro inhibition assay of CRBN activity (fluorescence polarization, Cy5-Thalidomide); type: binding; settings: Cy5-Thalidomide 10 nM, CRBN 180 nM, 27° C., 60 min
T1 construct: purchased Wuxi Biortus Biosciences Co. Ltd
Protocol: The final volume for assay was 20 μL, and the reaction temperature was 27° C. CRBN was produced by Wuxi Biortus Biosciences Co. Ltd. The concentration of the kinase was determined by the optimization experiment, and the kinase was diluted with an assay buffer (50 mM Tris, pH 7.5, 100 mM NaCl, and 0.01% Pluronic acid) to obtain a corresponding kinase solution (2× concentration). The compound was dissolved in dimethyl sulfoxide (DMSO) to reach a concentration of 10 mM. […] 5 μL of the test compound solution was mixed with 5 μL of the substrate solution, and 10 μL of the kinase solution was added to the mixture. The mixture was incubated at 27° C. for 60 min. Each assay was conducted in at least two replicates. […].
The final concentrations of the reagents in the assay were as follows. […] The data of fluorescence polarization assay were read on TECAN infinite M1000. Data were calculated by using GraphPad Prism version 6.0, and IC50 values were obtained by adjusting the non-linear regression models of the dose response curves.

CDK2 = CDK2 (Homo sapiens, UniProt P24941); assay: In-vitro kinase inhibitory activity, CDK2 (selectivity); type: biochemical; settings: read-out: IC50 (half maximal inhibitory concentration, nM) CDK2
CDK4/CyclinD3 = molecular target: T2, CDK4/CyclinD3 (Homo sapiens, UniProt P11802); assay: In-vitro kinase inhibitory activity, CDK4/CyclinD3 (Caliper EZ Reader II mobility shift); type: biochemical; settings: CDK4/CyclinD3 20 nM, ATP 2 mM, Peptide 1 μM, 27° C., 180 min; read-out: IC50 (half maximal inhibitory concentration, nM) CDK4
T2 construct: purchased Wuxi Biortus Biosciences Co. Ltd
Protocol: The final volume for assay was 16 μL, and the reaction temperature was 27° C. CDK4/CyclinD3 was produced by Wuxi Biortus Biosciences Co. Ltd. The concentration of the kinase was determined by the results of the optimization experiment. The kinase was diluted with an assay buffer (50 mM Tris HCl pH 8.0, 0.01% Tween 20, 50 μg/mL BSA, and 5 mM MgCl2) to obtain a corresponding kinase solution (2.4× concentration). The compound was dissolved in dimethyl sulfoxide (DMSO) to reach a concentration of 10 mM. […] 2 μL of the test compound solution was mixed with 5 μL of the kinase solution, and the mixture was incubated for 10 min. 5 μL of the mixed solution of the polypeptide substrate and ATP was then added. The mixture was incubated at 27° C. for 180 min, and then the reaction was terminated by adding 4 μL of EDTA with a concentration of 120 mM to each sample. […] Each assay was conducted in at least two replicates.
(§1) The final concentrations of the reagents in the assay were as follows. […] The reaction mixture was analyzed on a Caliper EZ Reader II by electrophoretic separation of the fluorescent substrate and the phosphorylated product. Data were calculated by using GraphPad Prism version 6.0 and IC50 values were obtained by adjusting the non-linear regression models of the dose response curves.

CDK6/CyclinD3 = molecular target: T3, CDK6/CyclinD3 (Homo sapiens, UniProt Q00534); assay: In-vitro kinase inhibitory activity, CDK6/CyclinD3 (Caliper EZ Reader II mobility shift); type: biochemical; settings: CDK6/CyclinD3 20 nM, ATP 2 mM, Peptide 1 μM, 27° C., 120 min; read-out: IC50 (half maximal inhibitory concentration, nM) CDK6
T3 construct: purchased Wuxi Biortus Biosciences Co. Ltd
Protocol: The final volume for assay was 16 μL, and the reaction temperature was 27° C. […] The compound was dissolved in dimethyl sulfoxide (DMSO) to reach a concentration of 10 mM. […] 2 μL of the test compound solution was mixed with 5 μL of the kinase solution, and the mixture was incubated for 10 min. 5 μL of the mixed solution of the polypeptide substrate and ATP was then added. The mixture was incubated at 27° C. for 120 min, and then the reaction was terminated by adding 4 μL of EDTA with a concentration of 120 mM to each sample. […] Each assay was conducted in at least two replicates.
as §1

CDK9 = CDK9 (Homo sapiens, UniProt P50750); assay: In-vitro kinase inhibitory activity, CDK9 (selectivity); type: biochemical; settings: read-out: IC50 (half maximal inhibitory concentration, nM) CDK9
[1] = system: human breast cancer MCF-7 cells; assay: Growth inhibition of tumor cells cultured in vitro, CellTiter-Glo, MCF-7; type: cell-based; settings: MCF-7, 72 h, CellTiter-Glo
Excerpt: (§2) Test drugs: Compounds of the present disclosure. Tumor cell strains: human colon cancer COLO205 cells and human breast cancer MCF-7 cells.
(§3) The growth inhibitory effects on human tumor cells COLO205 and MCF-7 cultured in vitro were observed by using a CellTiter-Glo Luminescent Cell Viability Assay Kit (Promega, Cat. No. G7572). Human tumor cells COLO205 and MCF-7 were both purchased from the American Type Culture Collection.
(§4) CellTiter-Glo Luminescent Cell Viability Assay: The previous cell culture medium was discarded, and the tumor cells were rinsed twice with PBS. An appropriate amount of trypsin (VWR, Cat. No. 0458-25G) was added to digest the tumor cells until most of the cells turned round and were detached from the wall. The trypsin digestion was terminated by adding an RPMI-1640 medium (COLO205; Gibco, Cat. No. A10491-01) containing 10% fetal bovine serum (Hyclone, Cat. No. SV30160.03) and MEM medium (MCF-7; Gibco, Cat. No. 10370-021) containing 10% fetal bovine serum and 0.01 mg/mL insulin, and the cells were gently pipetted with a pipette to completely suspend the tumor cells. After cell counting, a tumor cell suspension was prepared using a complete culture medium and the final concentration was 6.7×10^4 cells/mL. 90 μL of the tumor cell suspension was seeded in each well of a 96-well culture plate (6000 cells/well). The plate was then placed in an incubator with 5% CO2 at 37° C. and incubated for 24 h. A test drug was added by using an Agilent Bravo Automated Liquid Handling Platform, and 10 μL of the sample was added in each well. The assay was conducted in triplicate for each group. A compound of the present disclosure was dissolved in DMSO (BioRoYee, Cat. No. AF0231), and then the resulting solution was diluted to 10 μM/L, 3.33 μM/L, 1.11 μM/L, 0.37 μM/L, 0.123 μM/L, 0.041 μM/L, 0.0137 μM/L, 0.0046 μM/L, and 0.0015 μM/L with the culture medium. The concentration of DMSO was lower than 0.1%, and a culture medium containing 0.1% DMSO was added to the well which was set as a vehicle control group. The 96-well plate was placed in an incubator with 5% CO2 at 37° C. and incubated for 72 h. The 96-well plate to be tested was equilibrated at room temperature for 30 min, and 100 μL of Cell Titer-Glo reagent was added to each well. The contents of each well were mixed in an orbital shaker for 2 min to induce cell lysis, and the plate was incubated at room temperature for 10 min to achieve a constant value of fluorescent intensity. Finally, the chemiluminescence intensity was detected by TECAN M1000. Data were processed with Graphpad Prism 6.0 software. The growth curve of the cells was plotted. The cell growth inhibition rate of a drug was calculated, and the half maximal inhibitory concentration (IC50) of the drug was determined.

[2] = system: human colon cancer COLO205 cells; assay: Growth inhibition of tumor cells cultured in vitro, CellTiter-Glo, COLO205; type: cell-based; settings: for IC50: Homo sapiens, COLO 205, 72 h, COLO205, 72 h, CellTiter-Glo
Excerpt: as §2, §3, §4

Sequence of CDK9 (P50750 whole entry, species assumed): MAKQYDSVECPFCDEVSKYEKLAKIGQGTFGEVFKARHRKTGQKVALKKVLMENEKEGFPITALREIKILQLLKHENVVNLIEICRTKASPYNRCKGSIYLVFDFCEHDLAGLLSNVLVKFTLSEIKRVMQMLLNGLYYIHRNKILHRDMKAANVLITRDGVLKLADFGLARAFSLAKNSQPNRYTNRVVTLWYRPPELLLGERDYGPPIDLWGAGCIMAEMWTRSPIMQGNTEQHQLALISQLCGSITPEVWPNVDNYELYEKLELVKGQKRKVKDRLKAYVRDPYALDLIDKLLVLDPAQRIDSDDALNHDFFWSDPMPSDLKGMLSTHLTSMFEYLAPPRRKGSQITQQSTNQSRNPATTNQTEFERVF
Sequence of CDK9 (O60563 whole entry partner, species assumed): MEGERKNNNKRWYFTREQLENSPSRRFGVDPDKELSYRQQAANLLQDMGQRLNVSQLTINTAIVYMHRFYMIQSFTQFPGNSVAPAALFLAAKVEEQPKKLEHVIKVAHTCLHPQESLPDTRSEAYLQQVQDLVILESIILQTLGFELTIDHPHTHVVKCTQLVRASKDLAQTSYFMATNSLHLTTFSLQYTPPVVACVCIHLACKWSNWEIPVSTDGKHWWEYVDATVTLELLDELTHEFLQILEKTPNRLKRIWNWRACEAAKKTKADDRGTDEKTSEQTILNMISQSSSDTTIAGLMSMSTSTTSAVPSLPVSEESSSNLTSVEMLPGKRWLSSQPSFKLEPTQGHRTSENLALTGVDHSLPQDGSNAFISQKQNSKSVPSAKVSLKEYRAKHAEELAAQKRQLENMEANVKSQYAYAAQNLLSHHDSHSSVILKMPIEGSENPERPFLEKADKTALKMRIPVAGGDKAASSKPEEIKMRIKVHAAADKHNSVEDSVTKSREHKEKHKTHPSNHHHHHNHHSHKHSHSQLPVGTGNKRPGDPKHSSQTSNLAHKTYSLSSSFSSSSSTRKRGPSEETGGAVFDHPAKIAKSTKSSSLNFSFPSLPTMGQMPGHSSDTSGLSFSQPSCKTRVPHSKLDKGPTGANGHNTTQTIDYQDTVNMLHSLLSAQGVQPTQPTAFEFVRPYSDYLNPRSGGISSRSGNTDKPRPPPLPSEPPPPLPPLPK
T2 sequence (P11802 whole entry, species assumed): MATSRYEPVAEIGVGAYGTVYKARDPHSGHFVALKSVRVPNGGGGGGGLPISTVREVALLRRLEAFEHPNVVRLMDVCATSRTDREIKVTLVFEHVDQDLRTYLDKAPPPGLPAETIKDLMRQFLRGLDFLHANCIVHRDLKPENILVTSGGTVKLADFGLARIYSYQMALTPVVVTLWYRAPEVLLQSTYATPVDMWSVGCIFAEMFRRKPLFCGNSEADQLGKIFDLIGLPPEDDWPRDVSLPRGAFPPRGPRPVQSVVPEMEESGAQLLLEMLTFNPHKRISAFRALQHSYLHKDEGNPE
T2 sequence (P30281 whole entry partner, species assumed): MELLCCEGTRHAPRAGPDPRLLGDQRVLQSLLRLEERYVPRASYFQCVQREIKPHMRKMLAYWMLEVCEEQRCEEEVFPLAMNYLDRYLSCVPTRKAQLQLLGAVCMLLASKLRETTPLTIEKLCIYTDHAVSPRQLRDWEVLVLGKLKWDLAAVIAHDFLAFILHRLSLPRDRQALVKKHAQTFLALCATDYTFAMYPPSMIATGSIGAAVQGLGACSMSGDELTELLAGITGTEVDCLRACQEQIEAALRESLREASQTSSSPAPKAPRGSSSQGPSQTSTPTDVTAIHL
T1 sequence (Q96SW2 whole entry, species assumed): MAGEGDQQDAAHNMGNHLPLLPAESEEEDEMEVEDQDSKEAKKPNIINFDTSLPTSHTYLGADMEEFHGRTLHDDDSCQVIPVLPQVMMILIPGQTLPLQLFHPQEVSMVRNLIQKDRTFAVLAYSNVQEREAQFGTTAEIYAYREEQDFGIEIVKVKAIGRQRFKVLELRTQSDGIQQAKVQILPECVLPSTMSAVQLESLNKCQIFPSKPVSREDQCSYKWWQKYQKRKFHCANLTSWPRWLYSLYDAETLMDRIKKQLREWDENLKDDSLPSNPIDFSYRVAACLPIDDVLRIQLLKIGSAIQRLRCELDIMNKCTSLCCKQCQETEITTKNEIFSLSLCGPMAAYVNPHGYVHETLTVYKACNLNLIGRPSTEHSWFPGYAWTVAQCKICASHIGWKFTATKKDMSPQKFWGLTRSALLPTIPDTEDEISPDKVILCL
T3 sequence (Q00534 whole entry, species assumed): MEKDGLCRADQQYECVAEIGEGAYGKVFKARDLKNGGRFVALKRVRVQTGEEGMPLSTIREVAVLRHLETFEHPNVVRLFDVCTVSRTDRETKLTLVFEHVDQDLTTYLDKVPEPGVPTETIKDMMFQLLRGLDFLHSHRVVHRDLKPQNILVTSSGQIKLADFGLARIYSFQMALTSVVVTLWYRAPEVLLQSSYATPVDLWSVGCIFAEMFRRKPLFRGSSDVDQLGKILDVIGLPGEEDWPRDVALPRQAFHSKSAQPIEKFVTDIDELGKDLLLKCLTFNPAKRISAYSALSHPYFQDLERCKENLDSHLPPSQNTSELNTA
T3 sequence (P30281 whole entry partner, species assumed): as the sequence (P30281 whole entry partner, species assumed) above

IC50 (CRBN) [µM]	IC50 (CDK2) [nM]	IC50 (CDK4/CyclinD3) [nM]	IC50 (CDK6/CyclinD3) [nM]	IC50 (CDK9) [nM]	IC50 ([1]; Homo sapiens, MCF7, 72 h) [nM]	IC50 [2] [nM]	IC50 [1] [nM]	Compound	inhibitory effect on human colon cancer COLO205 cells (in words) ([2]; summary of the table)
	> 10000	27.4	18.2	6220		87.1	> 10000	CC(=O)c1c(C)c2cnc(Nc3ccc(N4CCN(CCN5CCN(c6c(F)cc7c(c6F)CN(C6CCC(=O)NC6=O)C7=O)CC5)CC4)cn3)nc2n(C2CCCC2)c1=O (centres unmarked) [Compound 22, 3-(5-(4-(2-(4-(6-((6-acetyl-8-cyclopentyl-5-methyl-7-oxo-7,8-dihydropyrido[2,3-d]pyrimidin-2-yl)amino)pyridin-3-yl)piperazin-1-yl)ethyl)piperazin-1-yl)-4,6-difluoro-1-oxoisoindolin-2-yl) piperidine-2,6-dione]	
1.42	7480	54.7	30	9920				CC(=O)c1c(C)c2cnc(Nc3ccc(N4CCN(CC(=O)N5CCC(C(=O)N6CCN(c7ccc8c(c7)CN([C@H]7CCC(=O)NC7=O)C8=O)CC6)CC5)CC4)cn3)nc2n(C2CCCC2)c1=O [Compound 7, (S)-3-(5-(4-(1-(2-(4-(6-((6-acetyl-8-cyclopentyl-5-methyl-7-oxo-7,8-dihydropyrido[2,3-d]pyrimidin-2-yl)amino)pyridin-3-yl)piperazin-1-yl)acetyl)piperidin-4-carbonyl)piperazin-1-yl)-1-oxoisoindolin-2-yl)piperidine-2,6-dione]	

Continued, molecule first:

Compound	IC50 (CRBN) [µM]	IC50 (CDK2) [nM]	IC50 (CDK4/CyclinD3) [nM]	IC50 (CDK6/CyclinD3) [nM]	IC50 (CDK9) [nM]	IC50 ([1]; Homo sapiens, MCF7, 72 h) [nM]	IC50 [2] [nM]	IC50 [1] [nM]	inhibitory effect on human colon cancer COLO205 cells (in words) ([2]; summary of the table)
CC(=O)c1c(C)c2cnc(Nc3ccc(N4CCN(CCN5CCC(CN6CCN(c7ccc8c(c7)CN(C7CCC(=O)NC7=O)C8=O)CC6)CC5)CC4)cn3)nc2n(C2CCCC2)c1=O (single isomer, unassigned) [Compound 3, 3-(5-(4-((1-(2-(4-(6-((6-acetyl-8-cyclopentyl-5-methyl-7-oxo-7,8-dihydropyrido[2,3-d]pyrimidin-2-yl)amino)pyridin-3-yl)piperazin-1-yl)ethyl)piperidin-4-yl)methyl)piperazin-1-yl)-1-oxoisoindolin-2-yl)piperidine-2,6-dione]	1.2	9660	16.1	14.5	2850				
CC(=O)c1c(C)c2cnc(Nc3ccc(N4CCN(CCN5CCC(C(=O)N6CCN(c7ccc8c(c7)CN([C@H]7CCC(=O)NC7=O)C8=O)CC6)CC5)CC4)cn3)nc2n(C2CCCC2)c1=O [Compound 8, (S)-3-(5-(4-(1-(2-(4-(6-((6-acetyl-8-cyclopentyl-5-methyl-7-oxo-7,8-dihydropyrido[2,3-d]pyrimidin-2-yl)amino)pyridin-3-yl)piperazin-1-yl)ethyl)piperidin-4-carbonyl)piperazin-1-yl)-1-oxoisoindolin-2-yl)piperidine-2,6-dione]	1.21	9000	19.9	16.1	3810	821	96.2		relatively good inhibitory effects
Cc1nc2c(F)cc(-c3nc(Nc4ccc(CN5CCN(CC(=O)N6CCC(C(=O)N7CCN(c8ccc9c(c8)CN([C@H]8CCC(=O)NC8=O)C9=O)CC7)CC6)CC5)cn4)ncc3F)cc2n1C(C)C [Compound 6, (S)-3-(5-(4-(1-(2-(4-((6-((5-fluoro-4-(4-fluoro-1-isopropyl-2-methyl-1H-benzo[d]imidazol-6-yl)pyrimidin-2-yl)amino)pyridin-3-yl)methyl)piperazin-1-yl)acetyl)piperidin-4-carbonyl)piperazin-1-yl)-1-oxoisoindolin-2-yl)piperidine-2,6-dione]	2.51	1140	24.2	42.4	946				
CC(=O)c1c(C)c2cnc(Nc3ccc(N4CCN(CCN5CCC(OC6CCN(c7ccc8c(c7)CN(C7CCC(=O)NC7=O)C8=O)CC6)CC5)CC4)cn3)nc2n(C2CCCC2)c1=O (centres unmarked) [Compound 9, 3-(5-(4-((1-(2-(4-(6-((6-acetyl-8-cyclopentyl-5-methyl-7-oxo-7,8-dihydropyrido[2,3-d]pyrimidin-2-yl)amino)pyridin-3-yl)piperazin-1-yl)ethyl)piperidin-4-yl)oxy)piperidin-1-yl)-1-oxoisoindolin-2-yl)piperidine-2,6-dione dihydrochloride]		> 10000	19.2	14.2	3510	> 10000	247		
CC(=O)c1c(C)c2cnc(Nc3ccc(N4CCN(CCN5CCC(CC6CCN(c7ccc8c(c7)CN(C7CCC(=O)NC7=O)C8=O)CC6)CC5)CC4)cn3)nc2n(C2CCCC2)c1=O (centres unmarked) [Compound 11, 3-(5-(4-((1-(2-(4-(6-((6-acetyl-8-cyclopentyl-5-methyl-7-oxo-7,8-dihydropyrido[2,3-d]pyrimidin-2-yl)amino)pyridin-3-yl)piperazin-1-yl)ethyl)piperidin-4-yl)methyl)piperidin-1-yl)-1-oxoisoindolin-2-yl)piperidine-2,6-dione dihydrochloride]		8200	24.6	21.1	4440	> 10000	127		
